Assay results: patent US12545745B2, “Method for treating a degenerative neurological disorders comprising administering ASM inhibitor” (KYUNGPOOK NATIONAL UNIVERSITY INDUSTRY-ACADEMIC COOPERATION …, priority 2013, dated 2026)
Structures can show the parent of a compound that is named as a salt.

Columns and labels:
ASM = biological target: T1, ASM (Mus musculus, UniProt Q04519); test: ASM activity / concentration level in serum (plasma) and brain tissue of APP/PS1 mice (UPLC); type: in vivo; settings: APP/PS1 mice, AMI administered for four months, nine month old; FIG. 24
T1 construct: from tissue; host or cells: mouse serum/plasma and brain tissue (APP/PS1, RSD-stressed C57BL/6, FUS R521C mice)
T1 sequence (Q04519 45-627): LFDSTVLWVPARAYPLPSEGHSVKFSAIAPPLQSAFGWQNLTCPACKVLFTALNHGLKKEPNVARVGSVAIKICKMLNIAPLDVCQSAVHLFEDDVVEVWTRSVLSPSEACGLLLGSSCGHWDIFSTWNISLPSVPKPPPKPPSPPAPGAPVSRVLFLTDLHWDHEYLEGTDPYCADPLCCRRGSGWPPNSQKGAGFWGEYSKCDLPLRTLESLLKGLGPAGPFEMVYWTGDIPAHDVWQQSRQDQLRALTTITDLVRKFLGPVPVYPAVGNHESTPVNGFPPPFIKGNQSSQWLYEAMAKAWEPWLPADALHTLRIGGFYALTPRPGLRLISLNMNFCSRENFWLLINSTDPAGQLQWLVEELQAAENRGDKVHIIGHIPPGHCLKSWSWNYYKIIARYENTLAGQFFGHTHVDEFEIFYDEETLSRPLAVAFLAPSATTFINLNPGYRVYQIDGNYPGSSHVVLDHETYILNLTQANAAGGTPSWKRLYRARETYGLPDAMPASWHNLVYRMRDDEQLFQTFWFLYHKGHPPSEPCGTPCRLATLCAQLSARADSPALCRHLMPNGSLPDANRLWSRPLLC
Protocol: More specifically, 3 μl of plasma, brain tissue and fibroblast samples from each mouse were mixed with an ASM activity buffer, and stored at 37° C. The hydrolysis reaction was completed by adding 114 μl of ethanol to the mixed solution, and then the mixed solution was centrifuged. 30 μl of the supernatant was transferred into a glass vial, and then 5 μl was applied to the UPLC system. The ASM concentration level was quantified in comparison with a bodipy (aminoacetaldehyde) combined with sphingomyelin and ceramide. The sphingomyelin and ceramide levels were extracted and quantified according to a known method, by extracting lipid from the sample, resuspending the dried lipid extract in 25 μl of 0.2% Igepal CA-630 (Sigma-Aldrich), and quantifying the concentration level of each lipid using the UPLC system. […] The animal test conducted was approved by the Kyungpook National University Institutional Animal Care and Use Committee (IACUC). Transgenic mouse line overexpressing APPswe (hAPP695swe) and PS1 (presenilin-1M146V) based on C57BL/6 mice (Charles River, UK) were used as Alzheimer's animal models [hereinafter, APP mice: mice overexpressing APPswe, PS1 mice: overexpressing presenilin-1M146V; GlaxoSmithKline]. […] The concentration level of ASM was measured as follows. Specifically, 3μ ? of mouse serum, brain tissue and fibroblast samples were mixed with ASM activity buffer and stored at 37° C. 114 μ ? of ethanol was added to terminate the hydrolysis reaction, followed by centrifugation. […] The ASM concentration levels were quantified by comparison with sphingomyelin and Bodipy (aminoacetaldehyde) conjugated with ceramide. The extraction and quantification of the sphingomyelin and ceramide was carried out by extracting and drying the lipids from the sample according to a known conventional method, and resuspending the dried lipid extract to 25 μl of 0.2% Igepal CA-630 (Sigma-Aldrich), and the concentration levels of each lipid were quantitated using the UPLC system. […] The concentration level of ASM was measured as follows. […]

β-amyloid = β-amyloid deposition in brain tissue of APP/PS1 mice (thioflavin S, immunofluorescence, ELISA); type: in vivo, mouse; settings: cerebral cortex and hippocampus, AMI for four months, FIG. 25
Protocol: First, the cerebral cortex and hippocampus tissue of each mouse prepared in Example 1-1 were isolated, and then a tissue fragment was obtained and this was dyed with thioflavin S according to a conventional known method. The results are illustrated in FIG. 3 (cerebral cortex) and FIG. 4 (hippocampus).
Also, immunofluorescence was performed according to a conventional known method using anti-20G10 (mouse, 1:1000) antibody against Aβ42, anti-G30 (rabbit, […]) antibody against Aβ40, anti-Iba-1 (rabbit, 1:500, Wako) antibody, anti-GFAP (rabbit, 1:500, DAKO) antibody and anti-active caspase3 (rabbit, 1:50, Chemicon) antibody. Tissue fragments were observed using a confocal laser scanning microscope equipped with Fluoview SV1000 imaging software (Olympus FV1000, Japan) or an Olympus BX51 microscope, and the percentage of the area of the dyed area with respect to the area of the entire tissue was quantified using Metamorph software (Molecular Devices).
Also, β-amyloid deposition was confirmed using commercially available ELISA kits (Biosource). More specifically, hemispheres of the brain of each mouse were homogenized in a buffer containing 0.02 M of guanidine. Thereafter, ELISA was performed for Aβ40 and Aβ42 according to the manufacturer's instructions.
After fixing the cerebral and hippocampal tissues of the mice, 0.5% thioflavin S (Sigma-Aldrich), anti-20G10 antibodies (mouse, 1:1000) against Aβ42, anti-G30 antibodies (rabbit, […]) against Aβ40, anti-GFAP antibodies (rabbit, 1:500, DAKO), or anti-Iba-1 antibodies (rabbit, 1:500, Wako) were co-cultured. The tissues were analyzed using a laser scanning confocal microscope equipped with Fluoview SV1000 imaging software (Olympus FV1000, Japan) or an Olympus BX51 microscope. Percentage of stained area to total tissue area was quantified and analyzed using Metamorph software (Molecular Devices).
After fixing the mouse brain and hippocampus, 0.5% thioflavin S (Sigma-Aldrich), anti-GFAP (rabbit, 1:500, DAKO), and anti-Iba-1 (rabbit, 1:500, WAKO) were co-cultured together. The regions were analyzed using a laser scanning confocal microscope equipped with Fluoview SV1000 imaging software (Olympus FV1000, Japan) or an Olympus BX51 microscope. Percentage of stained area to total tissue area was quantified and analyzed using Metamorph software (Molecular Devices).
Proteins were extracted from mouse brain and hippocampus, and the amounts of Abeta40 (KHB3481, Invitrogen) and Abeta42 (KHB3441, Invitrogen) were measured using ELISA.

APP/PS1 mice = test: Morris water maze (MWM) test in APP/PS1 mice; type: in vivo, mouse; settings: AMI for four months, vs control group, FIG. 26
Protocol: More specifically, wild type mice, APP/PS1/ASM^+/− mice, ASM^+/− mice and APP/PS1 mice were used. The mice were given four trials per day for 10 days to learn the task, and on day 11, the mice were given a probe trial in which the platform was removed. The escape latency during the test period and the time spent in the target platform on day 11 were measured. The results are illustrated in FIG. 7 and FIG. 8.
(§1) MWM (Morris water maze) experiments were performed in a conventional manner to identify potential effects on learning and memory. Briefly, for the MWM test, mouse were learned the task four times a day for 10 days, followed by the removal of the platform on the 11th day and subsequently a probe trial performed.
as §1, with “mice” for “mouse”

human fibroblast = test: Autophagy (LC3-I to LC3-II conversion) in human fibroblast treated with recombinant ASM, M6P or NH4Cl; type: cell-based
Protocol: Human fibroblast acquired from the Coriell Institute, and was cultured in DMEM medium containing 15% FBS at 37° C. and 5% of CO2. The cell lines were treated with recombinant ASM (1 μM to 10 μM), and then Western blotting and densitometric quantification were performed in the same manner as Example 2-1. The results are illustrated in FIG. 17 and FIG. 18.
In order to confirm how ASM affects autophagy, a test was conducted as follows. Human fibroblast was treated with ASM alone, or treated with ASM in the presence of mannose-6-phosphate (M6P; 10 mM) relating to the action of placing lysosomal enzyme protein in lysosome, and then the accumulation of autophagosome was confirmed using Western blotting and densitometric quantification. The results are illustrated in FIG. 19.
In order to confirm whether ASM increases the formation rate of autophagosome, or decreases the degradation rate of autophagosome, autophagic flux assay was performed. […] The results are illustrated in FIG. 20.
Also, when treating with NH4Cl or ASM after culturing fibroblast of human with Alzheimer's disease in a serum-free medium or complete medium, the conversion rate from LC3-I to LC3-II was measured using Western blotting. The results are illustrated in FIG. 21 and FIG. 22.

[1] = human fibroblast treated with ASM in the presence of M6P 10 mM, FIG. 19
[2] = human fibroblast, recombinant ASM 1 μM to 10 μM, FIG. 17, 18

Question: What does the source list for CN(C)CCC=C1c2ccccc2CCc2ccccc21 [AMI, amitriptyline-hydrochloride, reference compound]?
Answer: ASM in brain tissue (ASM): decreased; ASM in serum (ASM): decreased; deposition of β-amyloid (β-amyloid): inhibited; ability to remember (escape latency, MWM) (APP/PS1 mice): recovered by decrease in escape latency

Question: How did the “accumulation of ASM-induced autophagosome” value (human fibroblast; [1]) turn out when O=C[C@@H](O)[C@@H](O)[C@H](O)[C@H](O)COP(=O)(O)O [M6P, mannose-6-phosphate, reference compound] was run?
Answer: decreased

Question: And the “conversion to LC3-II” value (human fibroblast; [1])?
Answer: decreased

Question: Which LC3-II level (human fibroblast; fibroblast of human with Alzheimer's disease, serum-free medium (autophagy induced), NH4Cl added, FIG. 21) does the source give for Cl.N [NH4Cl, reference compound] here?
Answer: increased significantly

B1: recombinant ASM: recombinant acid sphingomyelinase protein used to treat human fibroblast (protein)
chain: LALSDSRVLWAPAEAHPLSPQGHPARLHRIVPRLRDVFGWGNLTCPICKGLFTAINLGLKKEPNVARVGSVAIKLCNLLKIAPPAVCQSIVHLFEDDMVEVWRRSVLSPSEACGLLLGSTCGHWDIFSSWNISLPTVPKPPPKPPSPPAPGAPVSRILFLTDLHWDHDYLEGTDPDCADPLCCRRGSGLPPASRPGAGYWGEYSKCDLPLRTLESLLSGLGPAGPFDMVYWTGDIPAHDVWHQTRQDQLRALTTVTALVRKFLGPVPVYPAVGNHESTPVNSFPPPFIEGNHSSRWLYEAMAKAWEPWLPAEALRTLRIGGFYALSPYPGLRLISLNMNFCSRENFWLLINSTDPAGQLQWLVGELQAAEDRGDKVHIIGHIPPGHCLKSWSWNYYRIVARYENTLAAQFFGHTHVDEFEVFYDEETLSRPLAVAFLAPSATTYIGLNPGYRVYQIDGNYSGSSHVVLDHETYILNLTQANIPGAIPHWQLLYRARETYGLPNTLPTAWHNLVYRMRGDMQLFQTFWFLYHKGHPPSEPCGTPCRLATLCAQLSARADSPALCRHLMPDGSLPEAQSLWPRPLFC
Question: Which “amount of LC3-II (autophagic flux assay)” value (human fibroblast; cells treated with ASM and NH4Cl, FIG. 20) does the source give for B1 here?
Answer: no significant change

Question: What about the “accumulation of LC3-II” value (human fibroblast; fibroblast of human with Alzheimer's disease, serum-free medium (autophagy induced), treated with ASM, FIG. 22) of the same molecule?
Answer: increased significantly

Question: And the “conversion from LC3-I to LC3-II” value (human fibroblast; [2])?
Answer: takes place depending on the concentration

Question: What about the “expression of beclin-1” value (human fibroblast; [2]) of the same molecule?
Answer: no significant change
